Measurements: ChEMBL document CHEMBL1145752, “Dissociation of antibacterial and hemolytic activities of an amphipathic peptide antibiotic” (2003)
≈ marks a conversion by molar mass, not a printed value. Non-standard residues stand in square brackets, D forms with d. Residues, ends and D or L forms follow the SMILES beside them. Orn = NCCC[C@H](N)C(=O)O

How the values were obtained:
Assay type in all cases: functional
Bacillus subtilis [1] = assay: Inhibitory activity was determined against bacillus subtilis (ATCC 82)
Bacillus subtilis [2] = assay: Ratio of minimum hemolysis concentration to that of minimum inhibitory concentration
[3] = Tested for minimum concentration for hemolysis of fresh human erythrocytes

| SMILES | MIC (Bacillus subtilis [1]) [µg/mL] | Ratio (Bacillus subtilis [2]) | MHC [3] [µg/mL] |
| --- | --- | --- | --- |
| CC(C)C[C@@H]1NC(=O)[C@H](CCCN)NC(=O)[C@H](C(C)C)NC(=O)[C@H](Cc2ccc(O)cc2)NC(=O)[C@H](CCC(N)=O)NC(=O)[C@H](CC(N)=O)NC(=O)[C@@H](Cc2ccccc2)NC(=O)[C@H](Cc2ccccc2)NC(=O)[C@@H]2CCCN2C(=O)[C@@H](C)NC1=O | 15 (≈ 12.6 µM) | 1.3 | 20 |
| CC[C@H](C)[C@@H]1NC(=O)[C@H](CC(N)=O)NC(=O)[C@@H](Cc2ccccc2)NC(=O)[C@H](Cc2ccccc2)NC(=O)[C@@H]2CCCN2C(=O)[C@@H](Cc2ccccc2)NC(=O)[C@H](CC(C)C)NC(=O)[C@H](CCCN)NC(=O)[C@H](C(C)C)NC(=O)[C@H](Cc2ccc(O)cc2)NC1=O | 1.8 (≈ 1.43 µM) | 25 | 45 |
| CC(C)C[C@@H]1NC(=O)[C@H](CCCN)NC(=O)[C@H](C(C)C)NC(=O)[C@H](Cc2ccc(O)cc2)NC(=O)[C@H](CCC(N)=O)NC(=O)[C@H](CC(N)=O)NC(=O)[C@@H](C)NC(=O)[C@H](Cc2ccccc2)NC(=O)[C@@H]2CCCN2C(=O)[C@@H](Cc2ccccc2)NC1=O | 10 (≈ 8.37 µM) | 4.7 | 47 |
| CC(C)C[C@@H]1NC(=O)[C@H](C)NC(=O)[C@H](C(C)C)NC(=O)[C@H](Cc2ccc(O)cc2)NC(=O)[C@H](CCC(N)=O)NC(=O)[C@H](CC(N)=O)NC(=O)[C@@H](Cc2ccccc2)NC(=O)[C@H](Cc2ccccc2)NC(=O)[C@@H]2CCCN2C(=O)[C@@H](Cc2ccccc2)NC1=O | 13 (≈ 10.6 µM) | 1 | 13 |
| CC(C)C[C@@H]1NC(=O)[C@H](CCCN)NC(=O)[C@H](C)NC(=O)[C@H](Cc2ccc(O)cc2)NC(=O)[C@H](CCC(N)=O)NC(=O)[C@H](CC(N)=O)NC(=O)[C@@H](Cc2ccccc2)NC(=O)[C@H](Cc2ccccc2)NC(=O)[C@@H]2CCCN2C(=O)[C@@H](Cc2ccccc2)NC1=O | 15 (≈ 12.1 µM) | 1.1 | 16 |
| CC(C)C[C@@H]1NC(=O)[C@H](CC(N)=O)NC(=O)[C@@H](Cc2ccccc2)NC(=O)[C@H](Cc2ccccc2)NC(=O)[C@@H]2CCCN2C(=O)[C@@H](Cc2ccccc2)NC(=O)[C@H](CC(C)C)NC(=O)[C@H](CCCN)NC(=O)[C@H](C(C)C)NC(=O)[C@H](Cc2ccc(O)cc2)NC1=O | 0.3 (≈ 0.239 µM) | 67 | 20 |
| CC(C)C[C@@H]1NC(=O)[C@H](CCCN)NC(=O)[C@H](C(C)C)NC(=O)[C@H](Cc2ccc(O)cc2)NC(=O)[C@H](CCC(=O)O)NC(=O)[C@H](CC(N)=O)NC(=O)[C@@H](Cc2ccccc2)NC(=O)[C@H](Cc2ccccc2)NC(=O)[C@@H]2CCCN2C(=O)[C@@H](Cc2ccccc2)NC1=O | 7.5 (≈ 5.9 µM) | 4 | 30 |
| CC(C)C[C@@H]1NC(=O)[C@H](CCCN)NC(=O)[C@H](C(C)C)NC(=O)[C@H](Cc2ccc(O)cc2)NC(=O)[C@H](CC(=O)O)NC(=O)[C@H](CC(N)=O)NC(=O)[C@@H](Cc2ccccc2)NC(=O)[C@H](Cc2ccccc2)NC(=O)[C@@H]2CCCN2C(=O)[C@@H](Cc2ccccc2)NC1=O | 5.3 (≈ 4.21 µM) | 6 | 32 |
| CC(C)C[C@@H]1NC(=O)[C@H](CCCN)NC(=O)[C@H](C(C)C)NC(=O)[C@H](Cc2ccc(O)cc2)NC(=O)[C@H](C(C)C)NC(=O)[C@H](CC(N)=O)NC(=O)[C@@H](Cc2ccccc2)NC(=O)[C@H](Cc2ccccc2)NC(=O)[C@@H]2CCCN2C(=O)[C@@H](Cc2ccccc2)NC1=O | 2.9 (≈ 2.34 µM) | 12 | 35 |
| CC(C)C[C@@H]1NC(=O)[C@H](CCCN)NC(=O)[C@H](C(C)C)NC(=O)[C@H](Cc2ccc(O)cc2)NC(=O)[C@H](CCCN)NC(=O)[C@H](CC(N)=O)NC(=O)[C@@H](Cc2ccccc2)NC(=O)[C@H](Cc2ccccc2)NC(=O)[C@@H]2CCCN2C(=O)[C@@H](Cc2ccccc2)NC1=O (cyclo(F[dF]N[Orn]YV[Orn]L[dF]P)) | 0.2 (≈ 0.159 µM) | 125 | 25 |
| CC(C)C[C@@H]1NC(=O)[C@H](CCCN)NC(=O)[C@H](C(C)C)NC(=O)[C@H](Cc2ccc(O)cc2)NC(=O)[C@H](C)NC(=O)[C@H](CC(N)=O)NC(=O)[C@@H](Cc2ccccc2)NC(=O)[C@H](Cc2ccccc2)NC(=O)[C@@H]2CCCN2C(=O)[C@@H](Cc2ccccc2)NC1=O | 1.5 (≈ 1.24 µM) | 19 | 28 |
| CC(C)C[C@@H]1NC(=O)[C@H](CCCN)NC(=O)[C@H](C(C)C)NC(=O)[C@H](Cc2ccc(O)cc2)NC(=O)[C@H](CCC(N)=O)NC(=O)[C@H](CC(N)=O)NC(=O)[C@@H](Cc2ccccc2)NC(=O)[C@H](Cc2ccccc2)NC(=O)[C@@H]2CCCN2C(=O)[C@@H](Cc2ccccc2)NC1=O [TYROCIDINE A] (cyclo(F[dF]NQYV[Orn]L[dF]P)) | 8.3 (≈ 6.53 µM) | 1 | 8.2 |
| CC(C)C[C@@H]1NC(=O)[C@H](CCCN)NC(=O)[C@H](C(C)C)NC(=O)[C@H](Cc2ccc(O)cc2)NC(=O)[C@H](CCC(N)=O)NC(=O)[C@H](CC(N)=O)NC(=O)[C@@H](Cc2ccccc2)NC(=O)[C@H](C)NC(=O)[C@@H]2CCCN2C(=O)[C@@H](Cc2ccccc2)NC1=O | 19 (≈ 15.9 µM) | 2.5 | 47 |
| CC(C)C[C@@H]1NC(=O)[C@H](CCCN)NC(=O)[C@H](C(C)C)NC(=O)[C@H](Cc2ccc(O)cc2)NC(=O)[C@H](CC(N)=O)NC(=O)[C@H](CC(N)=O)NC(=O)[C@@H](Cc2ccccc2)NC(=O)[C@H](Cc2ccccc2)NC(=O)[C@@H]2CCCN2C(=O)[C@@H](Cc2ccccc2)NC1=O | 0.4 (≈ 0.318 µM) | 50 | 20 |
| CC(C)C[C@@H]1NC(=O)[C@H](CCCN)NC(=O)[C@H](C(C)C)NC(=O)[C@H](Cc2ccc(O)cc2)NC(=O)[C@H](CCC(N)=O)NC(=O)[C@H](CC(N)=O)NC(=O)[C@@H](Cc2ccccc2)NC(=O)[C@H](Cc2ccccc2)NC(=O)[C@H](C)NC(=O)[C@@H](Cc2ccccc2)NC1=O | 18 (≈ 14.5 µM) | 2.9 | 53 |
| CC(C)C[C@@H]1NC(=O)[C@H](CCCN)NC(=O)[C@H](C(C)C)NC(=O)[C@H](C)NC(=O)[C@H](CCC(N)=O)NC(=O)[C@H](CC(N)=O)NC(=O)[C@@H](Cc2ccccc2)NC(=O)[C@H](Cc2ccccc2)NC(=O)[C@@H]2CCCN2C(=O)[C@@H](Cc2ccccc2)NC1=O | 14 (≈ 11.9 µM) | 1 | 14 |
| CC(C)C[C@@H]1NC(=O)[C@H](CCCN)NC(=O)[C@H](C(C)C)NC(=O)[C@H](Cc2ccc(O)cc2)NC(=O)[C@H](CCCCN)NC(=O)[C@H](CC(N)=O)NC(=O)[C@@H](Cc2ccccc2)NC(=O)[C@H](Cc2ccccc2)NC(=O)[C@@H]2CCCN2C(=O)[C@@H](Cc2ccccc2)NC1=O (cyclo(F[dF]NKYV[Orn]L[dF]P)) | 1.1 (≈ 0.866 µM) | 90 | 99 |
| CC(C)C[C@@H]1NC(=O)[C@H](CCCN)NC(=O)[C@H](C(C)C)NC(=O)[C@H](Cc2ccc(O)cc2)NC(=O)[C@H](CCC(N)=O)NC(=O)[C@H](C)NC(=O)[C@@H](Cc2ccccc2)NC(=O)[C@H](Cc2ccccc2)NC(=O)[C@@H]2CCCN2C(=O)[C@@H](Cc2ccccc2)NC1=O | 15 (≈ 12.2 µM) | 2.6 | 39 |
| CC(C)C[C@@H]1NC(=O)[C@H](CCCN)NC(=O)[C@H](C(C)C)NC(=O)[C@H](Cc2ccc(O)cc2)NC(=O)[C@H](Cc2ccc(O)cc2)NC(=O)[C@H](CC(N)=O)NC(=O)[C@@H](Cc2ccccc2)NC(=O)[C@H](Cc2ccccc2)NC(=O)[C@@H]2CCCN2C(=O)[C@@H](Cc2ccccc2)NC1=O | 5 (≈ 3.83 µM) | 24 | 120 |
| CC(C)[C@@H]1NC(=O)[C@H](Cc2ccc(O)cc2)NC(=O)[C@H](CCC(N)=O)NC(=O)[C@H](CC(N)=O)NC(=O)[C@@H](Cc2ccccc2)NC(=O)[C@H](Cc2ccccc2)NC(=O)[C@@H]2CCCN2C(=O)[C@@H](Cc2ccccc2)NC(=O)[C@H](C)NC(=O)[C@H](CCCN)NC1=O | 25 (≈ 20.4 µM) | 2 | 50 |
| CC(C)C[C@@H]1NC(=O)[C@H](CCCN)NC(=O)[C@H](C(C)C)NC(=O)[C@H](Cc2ccc(O)cc2)NC(=O)[C@H](Cc2c[nH]c3ccccc23)NC(=O)[C@H](CC(N)=O)NC(=O)[C@@H](Cc2ccccc2)NC(=O)[C@H](Cc2ccccc2)NC(=O)[C@@H]2CCCN2C(=O)[C@@H](Cc2ccccc2)NC1=O | 3.8 (≈ 2.86 µM) | 33 | 125 |
| CC(C)C[C@@H]1NC(=O)[C@H](CCCN)NC(=O)[C@H](C(C)C)NC(=O)[C@H](Cc2ccc(O)cc2)NC(=O)[C@H](CO)NC(=O)[C@H](CC(N)=O)NC(=O)[C@@H](Cc2ccccc2)NC(=O)[C@H](Cc2ccccc2)NC(=O)[C@@H]2CCCN2C(=O)[C@@H](Cc2ccccc2)NC1=O | 0.3 (≈ 0.244 µM) | 53 | 16 |
| CC(C)C[C@@H]1NC(=O)[C@H](CCCN)NC(=O)[C@H](C(C)C)NC(=O)[C@H](Cc2ccc(O)cc2)NC(=O)[C@H](CCCN=C(N)N)NC(=O)[C@H](CC(N)=O)NC(=O)[C@@H](Cc2ccccc2)NC(=O)[C@H](Cc2ccccc2)NC(=O)[C@@H]2CCCN2C(=O)[C@@H](Cc2ccccc2)NC1=O | 0.3 (≈ 0.231 µM) | 140 | 42 |
| CC(C)C[C@@H]1NC(=O)[C@H](CCCN)NC(=O)[C@H](C(C)C)NC(=O)[C@H](Cc2ccc(O)cc2)NC(=O)[C@H](Cc2ccccc2)NC(=O)[C@H](CC(N)=O)NC(=O)[C@@H](Cc2ccccc2)NC(=O)[C@H](Cc2ccccc2)NC(=O)[C@@H]2CCCN2C(=O)[C@@H](Cc2ccccc2)NC1=O | 0.6 (≈ 0.465 µM) | 30 | 18 |
